Patent US20250281564A1, “DYSREGULATION OF NEUROPROTEASOMES BY APOE ISOFORMS DRIVES ENDOGENOUS TAU AGGREGATION” (The Trustees of Columbia University in the City of New York, priority 2022, published 2025)
Residues, ends and D or L forms follow the SMILES beside them. *: point of attachment. Cbz = O=C(OCc1ccccc1)*

Experiments:
p62, LC3bI/II, Ulk1 = assay: Autophagy marker immunoblot in primary neurons; assay type: cell-based, mouse; conditions: 12 hours, DIV14 WT primary cortical neurons
From the text: (FIG. 4A) (Top) Structure of azide-PEG24-epoxomicin handle to enable rapid conjugation of linkers to global proteasome inhibitor epoxomicin using Click chemistry. (Bottom) Structure of Neuroproteasome-specific inhibitor impermeant Biotin-PEG24-Epoxomicin (iBEp). (FIG. 4B) Assessing permeability of iBEp in primary neurons. […] Cytosolic (Cyto) and membrane (Mem) fractions were immunoblotted using indicated antibodies. (FIG. 4C) Proteasome catalytic activity of membrane (Mem) and cytosolic (Cyto) fractions of neurons treated with iBEp. […] Proteasome catalytic activity was assessed by monitoring degradation of Suc-LLVY-AMC; proteasome-dependent cleavage of the substrate increases AMC fluorescence. N=3 biological replicates. **** p<0.0001 by One-Way ANOVA. (FIG. 4D) Primary neurons treated with iBEp probed for autophagy markers. […] Lysates were immunoblotted using indicated antibodies against common autophagy markers. Quantification of p62, LC3b, and Ulk1 intensities normalized to Actin. […] (FIG. 4E) Schematic to analyze changes in sarkosyl-soluble and insoluble proteomes in response to neuroproteasome inhibition. […] Sarkosyl-soluble and insoluble fractions were labeled with Tandem Mass Tags (TMTpro) for quantitative mass spectrometry. (FIG. 4F) Differential enrichment of proteins in the sarkosyl-soluble fraction of neurons treated with iBEp versus DMSO was analyzed and plotted as log 2-fold change vs-log 10 (P-value). Green dots represent proteins enriched in the iBEp treatment compared to DMSO treatment. (FIG. 4G) Graphs plotting the log 2-fold change of select Neuroproteasome substrates enriched in the sarkosyl-soluble fraction from MS analysis in (FIG. 4F) compared to UPS substrates and autophagy markers ** p<0.01 (adjusted p-value after multiple corrections). (FIG. 4H) Differential enrichment of proteins in the sarkosyl-insoluble fraction of neurons treated with iBEp versus DMSO was analyzed and plotted as log 2-fold change vs −log 10 (P-value). Green dots represent proteins enriched in the iBEp treatment compared to DMSO treatment. (FIG. 4I) (Left) Identification of proteins which are exclusively enriched in the insoluble fraction with no corresponding change in the soluble fraction (red). Plk2 represents the only protein which is enriched in the soluble fraction with no corresponding change in the insoluble fraction (green). Proteins plotted as differences in log 2 fold changes. (Right) Graphs plotting the log 2 fold changes of insoluble Tau (top) and soluble Tau (bottom) enriched in neurons treated with iBEp vs DMSO. ** p<0.01 (adjusted p-value after multiple corrections).
FIG. 5A-5G: Neuroproteasomes are differentially regulated by ApoE isoforms to determine formation of endogenous sarkosyl-insoluble Tau inclusions. […]

human Tau = assay: Sarkosyl fractionation and Tau immunoblot, hTau-KI primary cortical neurons; assay type: cell-based; conditions: 1 μM, 12 hours, vs DMSO
From the text: (§1) (FIG. 5A) Effect of neuroproteasome-specific inhibitor iBEp on Tau aggregation in primary neurons. […] Quantification of soluble and insoluble murine Tau (mTau) intensities normalized to soluble GAPDH. […] (FIG. 5B) Effect of neuroproteasome inhibition on aggregation of human Tau (hTau). […] (FIG. 5C) Generation of reversible neuroproteasome inhibitors to test effects of neuroproteasome inhibition. (Top) Structure of Sulfo-MG132 (SulfoMG). […] (FIG. 5D) Effect of reversible neuroproteasome inhibition using SulfoMG on Tau aggregation. […] Quantification of soluble and insoluble Tau intensities were normalized to soluble GAPDH. Data (right) are mean±SEM normalized respective to DMSO controls. […] (FIG. 5E) Testing iBEp permeability in vivo. […] 72 hours post injection, hippocampi were isolated and subjected to membrane fractionation without detergent. […] (FIG. 5F) Effect of neuroproteasome inhibition on Tau aggregation in vivo.

endogenous mouse Tau = assay: Sarkosyl fractionation and Tau immunoblot, WT primary cortical neurons; assay type: cell-based; conditions: 1 μM, 12 hours, vs DMSO
From the text: as §1

[1] = system: Thioflavin S-positive aggregates; assay: Thioflavin S staining of hippocampal sections of hTau-KI mice after stereotactic injection; conditions: hTau-KI mice, stereotactic, 72 hours
phosphorylated Tau = assay: Immunohistochemistry for phosphorylated Tau (AT8) in hTau-KI mice after stereotactic injection; conditions: hTau-KI mice, stereotactic, 72 hours
proteasome = proteasome (Homo sapiens, UniProt P28072+P28074+Q99436); assay: Efficacy against the proteasome relative to the parent inhibitor; assay type: biochemical
From the text: We next tested the potency and selectivity of iBEp relative to Epoxomicin. Epoxomicin covalently and irreversibly binds the catalytic β subunits of the proteasome-therefore, the biotin moiety on iBEp serves as a tracer to detect whether proteasomes are inhibited by monitoring biotin signal on an SDS-PAGE gel (83, 87-89). […] This is supported by previous data that modification of the non-reactive end of epoxomicin has been shown not to change the selectivity of Epoxomicin for the proteasome (83, 87-89). […] We therefore chose doses of inhibitor where the effective concentration of the inhibitor was similar to previous studies using Epoxomicin alone and well within the acceptable range of efficacy given how potent Epoxomicin is as a proteasome inhibitor.
Many of our experiments rely on the use of iBEp because the biotin tracer on an irreversible and specific inhibitor allows us to track which proteasomes are inhibited. However, we wanted to validate our findings using a proteasome inhibitor with a distinct mechanism of action from Epoxomicin. We therefore modified MG132, a reversible peptide aldehyde proteasome inhibitor, with a sulfonated biotin linker on the nonreactive N-terminus (84). […] Instead, we turned to cellular and functional readouts of permeability. […]

CC[C@H](C)[C@H](NC(=O)[C@H]([C@@H](C)CC)N(C)C(C)=O)C(=O)N[C@H](C(=O)N[C@@H](CC(C)C)C(=O)[C@@]1(C)CO1)[C@@H](C)O [Epoxomicin, reference compound]
LC3bI/II (p62, LC3bI/II, Ulk1): little to no change in LC3bI/II
p62 levels (p62, LC3bI/II, Ulk1): strong induction of p62
sarkosyl-insoluble Tau, hTau-KI neurons (human Tau): no change in sarkosyl-insoluble Tau
sarkosyl-insoluble Tau, WT neurons (endogenous mouse Tau): no change in sarkosyl-insoluble Tau

CC(C)C[C@@H](C=O)NC(=O)[C@H](CC(C)C)NC(=O)[C@H](CC(C)C)NC(=O)OCc1ccccc1 [MG132, reference compound] (Cbz-Leu-Leu-Leu-aldehyde)
sarkosyl-insoluble Tau, hTau-KI neurons (human Tau): does not affect the sarkosyl-insoluble accumulation of Tau

C[C@@H]1C[C@@H]([C@H](O)CC2CC(=O)NC(=O)C2)C(=O)[C@@H](C)C1 [cycloheximide, reference compound]
ThioS+ staining, co-injection with iBEp vs iBEp alone [1]: complete return to baseline of ThioS+ staining
AT8 staining, co-injection with iBEp vs contralateral iBEp alone (phosphorylated Tau): completely eliminated AT8 staining

Sulfo-MG132 [SulfoMG]
sarkosyl-insoluble Tau, hTau-KI neurons (human Tau): induces similar partitioning of hTau into the sarkosyl-insoluble fraction as iBEp
efficacy against the proteasome relative to the parent inhibitor (proteasome): significant inhibition of proteasomes using SulfoMG despite the moderate loss of efficacy compared to MG132
